20 compounds from patent US11440922B2, “Heterocyclylmethylidene derivatives and their use as modulators of mGluR5 receptors” (Recordati Industria Chimica e Farmaceutica S.p.A., priority 2017, dated 2022) can be followed below.

One series concerns the target human mGluR5 receptor (Homo sapiens (Human), UniProt P41594). The experiment in a line: Radioligand binding assay at cloned human mGluR5 receptor subtype ([3H]MPEP). Conditions: 4 nM [3H]MPEP, CHO T-REx h-mGluR5 cells, 60 min at 25° C.; read-out: mGlu5 Ki. The source says: (§1) Cell lines stably transfected were generated using inducible expression vectors encoding human mGlu5 receptor using the Tetracycline-Regulated Expression system (T-REx™ system, Invitrogen, Life Technologies). Human mGluR5 open reading frame (ORF), comprehensive of the stop codon, were cloned into the pcDNA4/TO/myc-His™ A vector, carrying the TetO2. The insertion site was HindIII-PstI for mGluR5 receptors. The obtained constructs were then transfected into the T-REx CHO™ cell line using the FuGENE protocol (Roche); the CHO T-REx™ cell line stably expresses the Tet repressor (from the pcDNA6/TR plasmid) under the selection of blasticidin, 10 μg/ml. Stable clones were obtained selecting with zeocin 1 mg/ml and maintaining in ULTRA CHO medium (LONZA) supplemented with dialyzed FBS, zeocin, blasticidine, at 37° C., in an atmosphere of 5% CO2. The expression of h-mGluR5 receptors was de-repressed with 1 μg/ml tetracycline for 18 h before binding experimentation, while the expression of h-mGluR5 receptors was derepressed respectively with 3 ng/ml and 10 ng/ml tetracycline for 18 h before calcium fluorescence experimentation.
Radioligand Binding Assay at Cloned Human mGluR5 Receptor Subtype
Affinity at transmembrane glutamate metabotropic cloned human mGluR5 receptor was evaluated according to the methods of Anderson (Anderson et al., J Pharmacol. Exp. Ther., (2002), Vol. 303(3), pp. 1044-51), with some modifications. Human cloned mGluR5 was obtained by re-suspending CHO T-REx h-mGluR5 cells (50 μg/well) in 20 mM HEPES, 2 mM MgCl2, 2 mM CaCl2, pH 7.4, that then were incubated in a final volume of 1 ml for 60 min at 25° C. with 4 nM [^3H]MPEP in the absence or presence of competing drugs. Non-specific binding was determined in the presence of 10 μM MPEP. The incubation was stopped by addition of cold Tris buffer pH 7.4 and rapid filtration through 0.2% polyethyleneimine pretreated Filtermat 1204-401 (Perkin Elmer) filters. The filters were then washed with cold buffer and the radioactivity retained on the filters was counted by liquid scintillation spectrometry (Betaplate 1204 BS-Wallac).
The inhibition curves of the tested compounds at cloned mGluR5 subtypes were determined by nonlinear regression analysis using software Prism 4.0 (Graphpad, San Diego, Calif.). The IC50 values and pseudo-Hill slope coefficients were estimated by the program. The values for the inhibition constant, Ki, were calculated according to the equation Ki=IC50/(1+[L]/Kd), where [L] is the concentration of radioligand and Kd is the equilibrium dissociation constant of the radioligand-receptor complex (Cheng et al., Biochem. Pharmacol. (1973), Vol. 22, pp. 3099-3108).

The target in series [1] is T1, human mGlu5 receptor (Homo sapiens (Human), UniProt P41594). The experiment in a line: Fold shift of agonist curve determination. Format: cell-based. As to conditions: ratio of EC50 agonist (quisqualate or glutamate) curves in presence and in absence of test compound; compound at 1 μM.
Source text: as §1
(§2) Cells were seeded into black-walled, clear-bottom, 96-well plates at a density of 80000 cell/well, in RPMI (without Phenol Red, without L-glutamine; Gibco LifeTechnologies, CA) supplemented with 10% dialyzed FBS. Following 18-h incubation with tetracycline, the cells were loaded with […] Ca^2+-sensitive fluorescent dye Fluo-4/AM (Molecular Probes) in Hanks' balanced saline solution (HBSS, Gibco LifeTechnologies, CA) with […] Hepes (Sigma) and 2.5 mM probenecid (Sigma), for 1 h at 37° C. The cells were washed three times with HBSS to remove extracellular dye. Fluorescence signals were measured by using the fluorescence microplate reader Flexstation III (Molecular Devices) at sampling intervals of 1.5 s for 60 s.
The PAM potency was evaluated by performing an agonist concentration response curve in the presence of the compounds. The compounds at fixed concentration (0.01 or 0.1 or 1 μM) were applied 10 minutes before the incubation of the agonist (quisqualate or glutamate) dose-response curve. The fold shift was determined as ratio of EC50 agonist curves in presence and in absence of test compound. For instance, and in particular compound 34 has a fold shift of 2.7.

For series [2], the target named is T1, human mGlu5 receptor. The experiment in a line: Calcium fluorescence measurements, potentiation of mGlu5 activation (positive allosteric modulator activity). It is filed as cell-based. As to conditions: EC20 of the agonist (quisqualate or glutamate), compounds applied 10 minutes before agonist.
Source text: as §1, §2
The antagonist potency was determined using the EC80 of the quisqualate used as agonist and the potentiation of mGlu5 activation was determined using the EC20 of the agonist (quisqualate or glutamate). The compounds were applied 10 minutes before the application of the agonist.
The negative allosteric modulator activity (expressed as IC50) and the positive allosteric modulator activity (expressed as EC50) of the compounds of the invention for the mGlu5 receptors is between 0.1 and 1000 nM.

T1 sequence (P41594 21-1212): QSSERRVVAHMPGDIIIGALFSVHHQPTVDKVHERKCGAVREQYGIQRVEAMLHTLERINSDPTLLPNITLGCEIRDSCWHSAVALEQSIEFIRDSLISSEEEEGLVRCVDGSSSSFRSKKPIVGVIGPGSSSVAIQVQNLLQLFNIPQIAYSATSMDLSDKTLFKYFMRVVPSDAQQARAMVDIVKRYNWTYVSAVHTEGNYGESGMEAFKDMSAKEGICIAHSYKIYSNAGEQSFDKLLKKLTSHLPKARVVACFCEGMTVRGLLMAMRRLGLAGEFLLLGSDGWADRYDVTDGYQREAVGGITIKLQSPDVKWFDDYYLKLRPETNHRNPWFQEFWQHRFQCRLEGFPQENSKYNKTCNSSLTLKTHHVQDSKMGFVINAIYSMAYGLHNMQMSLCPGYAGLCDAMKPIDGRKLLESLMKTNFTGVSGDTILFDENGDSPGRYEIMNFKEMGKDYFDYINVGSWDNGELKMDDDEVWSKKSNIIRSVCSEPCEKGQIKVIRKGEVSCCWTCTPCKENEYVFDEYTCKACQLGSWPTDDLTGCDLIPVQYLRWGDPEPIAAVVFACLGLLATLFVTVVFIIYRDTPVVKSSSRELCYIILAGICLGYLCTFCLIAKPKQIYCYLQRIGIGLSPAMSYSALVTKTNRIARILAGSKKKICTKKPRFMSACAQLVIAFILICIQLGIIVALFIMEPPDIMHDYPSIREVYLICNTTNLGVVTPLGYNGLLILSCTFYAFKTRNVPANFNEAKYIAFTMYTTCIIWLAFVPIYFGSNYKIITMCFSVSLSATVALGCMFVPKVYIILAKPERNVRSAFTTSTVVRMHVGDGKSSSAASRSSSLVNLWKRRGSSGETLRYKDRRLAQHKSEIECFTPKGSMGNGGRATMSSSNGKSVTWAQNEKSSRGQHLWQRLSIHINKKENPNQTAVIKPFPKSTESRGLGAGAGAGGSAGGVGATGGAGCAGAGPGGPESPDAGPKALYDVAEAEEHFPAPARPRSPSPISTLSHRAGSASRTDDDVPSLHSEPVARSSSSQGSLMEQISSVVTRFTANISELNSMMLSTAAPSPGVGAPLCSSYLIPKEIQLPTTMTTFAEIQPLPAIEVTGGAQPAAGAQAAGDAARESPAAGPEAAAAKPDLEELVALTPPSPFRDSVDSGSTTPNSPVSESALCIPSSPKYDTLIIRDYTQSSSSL
Chain of human mGluR5 receptor (P41594 21-1212): as above

With `COC(=O)N1CC/C(=C\C#Cc2nccc(C)n2)C1(C)C` [Example 64, methyl (3E)-2,2-dimethyl-3-[3-(4-methylpyrimidin-2-yl)prop-2-yn-1-ylidene]pyrrolidine-1-carboxylate], the Ki on human mGluR5 receptor was 82.9 nM.
Consider `COc1cc(OC)nc(C(=O)N2CC/C(=C\C#Cc3cccc(Cl)c3)C(C)(C)C2)n1` [Example 166, {(4E)-4-[3-(3-chlorophenyl)prop-2-yn-1-ylidene]-3,3-dimethylpiperidin-1-yl}(4,6-dimethoxypyrimidin-2-yl)methanone], for which, at human mGlu5 receptor [1], the “mGlu5 Fold Shift @1 μM” value is 1.35.
As to `CCOC(=O)N1CC/C(=C\C#Cc2cc(C#N)ccn2)C1(C)C` [Example 73, ethyl (3E)-3-[3-(4-cyanopyridin-2-yl)prop-2-yn-1-ylidene]-2,2-dimethylpyrrolidine-1-carboxylate], at human mGluR5 receptor, the Ki was found to be 29.8 nM.
Consider `COc1cccc(C(=O)N2CC/C(=C\C#Cc3cccc(C#N)c3)C(C)(C)C2)c1` [Example 196, 3-{(3E)-3-[1-(3-methoxybenzoyl)-3,3-dimethylpiperidin-4-ylidene]prop-1-yn-1-yl}benzonitrile], for which, at human mGlu5 receptor [2], the half-maximal effective concentration (EC50) came out at 87.7 nM. The “mGlu5 Fold Shift @1 μM” value at human mGlu5 receptor [1] amounted to 2.2.
Turning to `Cc1cccc(C(=O)N2CC/C(=C\C#Cc3cccc(Cl)c3)C(C)(C)C2)n1` [Example 128, {(4E)-4-[3-(3-chlorophenyl)prop-2-yn-1-ylidene]-3,3-dimethylpiperidin-1-yl}(6-methylpyridin-2-yl)methanone], the Ki at human mGluR5 receptor worked out at 1.82 nM. Besides, the EC50 on human mGlu5 receptor [2] stood at 165 nM. Also, the “mGlu5 Fold Shift @1 μM” value on human mGlu5 receptor [1] is listed as 3.5.
For `CC1(C)CN(C(=O)c2cccc(Cl)c2)CC/C1=C\C#Cc1cccc(CO)c1` [Example 119, (3-chlorophenyl){(4E)-4-{3-[3-(hydroxymethyl)phenyl]prop-2-yn-1-ylidene}-3,3-dimethylpiperidin-1-yl]methanone] the same measures were 8.05 nM, 49.7 nM and 2.9.
Turning to `CC1(C)CN(C(=O)c2cccc(Cl)c2)CC/C1=C\C#Cc1cccc(C#N)c1` [Example 116, 3-{(3E)-3-[1-(3-chlorobenzoyl)-3,3-dimethylpiperidin-4-ylidene]prop-1-yn-1-yl}benzonitrile], the Ki at human mGluR5 receptor is 1.6 nM. Also, the EC50 on human mGlu5 receptor [2] stood at 52.8 nM. On human mGlu5 receptor [1], the “mGlu5 Fold Shift @1 μM” value turned out to be 2.14.
For `CC1(C)CN(C(=O)c2cccc(Cl)c2)CC/C1=C\c1cc(-c2cccc(Cl)c2)[nH]n1` [Example 107, (3-chlorophenyl)[(4E)-4-{[5-(3-chlorophenyl)-1H-pyrazol-3-yl]methylidene}-3,3-dimethylpiperidin-1-yl]methanone] the same measures were 932 nM, 121 nM and 7.66.
For `Cc1cccc(C(=O)N2CC/C(=C\C#Cc3cccc(Cl)c3)C(C)(C)C2)c1` [Example 43, {(4E)-4-[3-(3-chlorophenyl)prop-2-yn-1-ylidene]-3,3-dimethylpiperidin-1-yl}(3-methylphenyl)methanone] the same measures were 7.39 nM, 64.5 nM and 2.8.
For `CCn1nc(C)c(C(=O)N2CC/C(=C\C#Cc3cccc(Cl)c3)C(C)(C)C2)n1` [Example 167, {(4E)-4-[3-(3-chlorophenyl)prop-2-yn-1-ylidene]-3,3-dimethylpiperidin-1-yl}(2-ethyl-5-methyl-2H-1,2,3-triazol-4-yl)methanone] the same measures were 2.42 nM, 23 nM and 2.7.
`CCOC(=O)N1CC/C(=C\C#Cc2cccc(C)n2)C(C)(C)C1` [Example 3, ethyl (4E)-3,3-dimethyl-4-[3-(6-methylpyridin-2-yl)prop-2-yn-1-ylidene]piperidine-1-carboxylate]: the Ki on human mGluR5 receptor was 1.47 nM.
For the compound `CC1(C)CN(C(=O)c2cccc(Cl)c2)CC/C1=C\C#Cc1cccc(O)c1` [Example 191, (3-chlorophenyl){(4E)-4-[3-(3-hydroxyphenyl)prop-2-yn-1-ylidene]-3,3-dimethylpiperidin-1-yl}methanone], the inhibition constant (Ki) on human mGluR5 receptor was found to be 7.35 nM. Also, the EC50 at human mGlu5 receptor [2] came to 224 nM. For the same compound, the “mGlu5 Fold Shift @1 μM” value on human mGlu5 receptor [1] is on record as 3.9.
As to `CCOC(=O)N1CC/C(=C\C#Cc2cc(Cl)ccn2)C(C)(C)C1` [Example 18, ethyl (4E)-4-[3-(4-chloropyridin-2-yl)prop-2-yn-1-ylidene]-3,3-dimethylpiperidine-1-carboxylate], the Ki on human mGluR5 receptor came out at 1.01 nM.
In the case of `COc1cccc(C(=O)N2CC/C(=C\C#Cc3cccc(Cl)c3)C(C)(C)C2)c1` [Example 137, {(4E)-4-[3-(3-chlorophenyl)prop-2-yn-1-ylidene]-3,3-dimethylpiperidin-1-yl}(3-methoxyphenyl)methanone], the EC50 at human mGlu5 receptor [2] was 268 nM. The “mGlu5 Fold Shift @1 μM” value on human mGlu5 receptor [1] is 2.1.
Consider `Cc1cc(C(=O)N2CC/C(=C\C#Cc3cccc(CO)c3)C(C)(C)C2)c(C)o1` [Example 46, (2,5-dimethylfuran-3-yl)[(4E)-4-{3-[3-(hydroxymethyl)phenyl]prop-2-yn-1-ylidene}-3,3-dimethylpiperidin-1-yl]methanone], for which the Ki on human mGluR5 receptor was determined as 323 nM. Also, the EC50 at human mGlu5 receptor [2] was determined as 37.4 nM. Moreover, the “mGlu5 Fold Shift @1 μM” value at human mGlu5 receptor [1] turned out to be 3.79.
In the same order, the values of `Cc1cc(C(=O)N2CC/C(=C\C#Cc3cc(F)cc(C#N)c3)C(C)(C)C2)c(C)o1` [Example 200, 3-[(3E)-3-{1-[(2,5-dimethylfuran-3-yl)carbonyl]-3,3-dimethylpiperidin-4-ylidene}prop-1-yn-1-yl]-5-fluorobenzonitrile] are 637 nM, 291 nM and 2.3.
As for `O=C(c1cccc(Cl)c1)N1CC/C(=C\C#Cc2cccc(Cl)c2)C(F)(F)C1` [Example 201, (3-chlorophenyl){(4E)-4-[3-(3-chlorophenyl)prop-2-yn-1-ylidene]-3,3-difluoropiperidin-1-yl}methanone], at human mGluR5 receptor, the Ki is 1.91 nM. For the same compound, the EC50 on human mGlu5 receptor [2] turned out to be 88.2 nM. At human mGlu5 receptor [1], the “mGlu5 Fold Shift @1 μM” value was 4.5.
Consider `CCOC(=O)N1CC/C(=C\C#Cc2cc(F)ccc2F)C(C)(C)C1` [Example 19, ethyl (4E)-4-[3-(2,5-difluorophenyl)prop-2-yn-1-ylidene]-3,3-dimethylpiperidine-1-carboxylate], for which the Ki at human mGluR5 receptor came out at 0.89 nM.
For the compound `CC1(C)CN(C(=O)c2cccc(Cl)c2)CC/C1=C\C#Cc1ccc(F)cc1` [Example 120, (3-chlorophenyl){(4E)-4-[3-(4-fluorophenyl)prop-2-yn-1-ylidene]-3,3-dimethylpiperidin-1-yl}methanone], at human mGluR5 receptor, the Ki worked out at 4.02 nM. The EC50 at human mGlu5 receptor [2] was found to be 38.6 nM. Also, at human mGlu5 receptor [1], the “mGlu5 Fold Shift @1 μM” value is listed as 5.5.
Take `CC1(C)CN(C(=O)c2cccc(O)c2)CC/C1=C\C#Cc1cccc(Cl)c1` [Example 126, {(4E)-4-[3-(3-chlorophenyl)prop-2-yn-1-ylidene]-3,3-dimethylpiperidin-1-yl}(3-hydroxyphenyl)methanone]: the EC50 on human mGlu5 receptor [2] turned out to be 115 nM. For the same compound, the “mGlu5 Fold Shift @1 μM” value on human mGlu5 receptor [1] was determined as 3.4.

The Ki is the equilibrium dissociation constant of an inhibitor or competing ligand from its target. As a reminder, the EC50 is the concentration that produces a half-maximal response.
